From US20170319572A1, “COMBINATION DRUG TREATMENT FOR HEPATITIS C INFECTION” (JANSSEN PHARMACEUTICALS, INC., priority 2015, published 2017)
Entries after “also recorded” stand apart in the source; their conditions may differ.

Experiments:
[1] = Drug-drug interaction study in humans (Phase-1, open-label, two-group, fixed-sequence, PK); settings: for increase of exposure caused by SMV: co-administration of SMV
Description: A drug-drug interaction study (DDI) study is a study designed to investigate whether a drug alters the pharmacokinetics of another drug or drugs or their metabolites.
Compound (III)—Subjects received 800 mg of Compound (III) once daily from Days 1-3, Days 11-13, and Days 21-23. PK blood samples for determination of Compound (III) and metabolite concentrations were collected in reference to the Day 3, Day 13, and Day 23 doses.
Simeprevir—Subjects received 150 mg of Simeprevir (SMV) once daily from Days 4-23. PK blood samples for determination of SMV concentrations were collected in reference to the Day 10, Day 13, Day 20, and Day 23 doses.
Odalasvir—Subjects received a loading dose of 150 mg on Day 14, and 50 mg of Odalasvir once daily from Days 15-23. PK blood samples for determination of Odalasvir concentrations were collected in reference to the Day 20 and Day 23 doses.
Compound (III)—Subjects received 800 mg of Compound (III) once daily from Days 1-3, Days 11-13 and Days 21-23. PK blood samples for determination of Compound (III) and metabolite concentrations were collected in reference to the Day 3, Day 13, and Day 23 doses.
Simeprevir—Subjects receive 150 mg of SMV once daily from Days 4-23. PK blood samples for determination of SMV concentrations were collected in reference to the Day 20 and Day 23 doses.
Odalasvir—Subjects receive a loading dose of 150 mg on Day 4, and 50 mg of Odalasvir once daily from Days 5-23. PK blood samples for determination of Odalasvir concentrations were collected in reference to the Day 10, Day 13, Day 20, and Day 23 doses.
This drug-drug interaction study was intended to assess the safety and tolerability of the described drug combinations at pre-defined time points throughout the study. Study completion/follow-up visit(s) were performed 7 and 28 days after completion of the last study assessment.
A primary objective was to evaluate the effect of multiple oral doses of Odalasvir (alone), Simeprevir (alone), and Odalasvir and Simeprevir on the multiple oral dose PK of Compound (III) (and certain metabolites thereof, such as the major metabolites in systemic circulation) in healthy volunteers. Other objectives were to evaluate the safety and tolerability of multiple oral doses of Compound (III) when administered alone and in combination with single and multiple oral doses of Odalasvir and/or Simeprevir in healthy volunteers; to determine the potential effect of Compound of Compound (III) and/or Odalasvir on the steady-state PK of Simeprevir in healthy volunteers; to determine the potential effect of Compound of Compound (III) and/or Simeprevir on the steady state PK of Odalasvir in healthy volunteers.
Various other PK parameters were estimated including: Clast, t1/2, Tmax, Tlast, CL/F, Vz/F, and λz.
The following daily doses were employed:
Odalasvir: 150 mg loading dose; 50 mg for the remainder of the study period.

Pgp = Pgp (Homo sapiens, UniProt P08183); settings: cited from earlier work
Pgp, sequence (P08183 whole entry): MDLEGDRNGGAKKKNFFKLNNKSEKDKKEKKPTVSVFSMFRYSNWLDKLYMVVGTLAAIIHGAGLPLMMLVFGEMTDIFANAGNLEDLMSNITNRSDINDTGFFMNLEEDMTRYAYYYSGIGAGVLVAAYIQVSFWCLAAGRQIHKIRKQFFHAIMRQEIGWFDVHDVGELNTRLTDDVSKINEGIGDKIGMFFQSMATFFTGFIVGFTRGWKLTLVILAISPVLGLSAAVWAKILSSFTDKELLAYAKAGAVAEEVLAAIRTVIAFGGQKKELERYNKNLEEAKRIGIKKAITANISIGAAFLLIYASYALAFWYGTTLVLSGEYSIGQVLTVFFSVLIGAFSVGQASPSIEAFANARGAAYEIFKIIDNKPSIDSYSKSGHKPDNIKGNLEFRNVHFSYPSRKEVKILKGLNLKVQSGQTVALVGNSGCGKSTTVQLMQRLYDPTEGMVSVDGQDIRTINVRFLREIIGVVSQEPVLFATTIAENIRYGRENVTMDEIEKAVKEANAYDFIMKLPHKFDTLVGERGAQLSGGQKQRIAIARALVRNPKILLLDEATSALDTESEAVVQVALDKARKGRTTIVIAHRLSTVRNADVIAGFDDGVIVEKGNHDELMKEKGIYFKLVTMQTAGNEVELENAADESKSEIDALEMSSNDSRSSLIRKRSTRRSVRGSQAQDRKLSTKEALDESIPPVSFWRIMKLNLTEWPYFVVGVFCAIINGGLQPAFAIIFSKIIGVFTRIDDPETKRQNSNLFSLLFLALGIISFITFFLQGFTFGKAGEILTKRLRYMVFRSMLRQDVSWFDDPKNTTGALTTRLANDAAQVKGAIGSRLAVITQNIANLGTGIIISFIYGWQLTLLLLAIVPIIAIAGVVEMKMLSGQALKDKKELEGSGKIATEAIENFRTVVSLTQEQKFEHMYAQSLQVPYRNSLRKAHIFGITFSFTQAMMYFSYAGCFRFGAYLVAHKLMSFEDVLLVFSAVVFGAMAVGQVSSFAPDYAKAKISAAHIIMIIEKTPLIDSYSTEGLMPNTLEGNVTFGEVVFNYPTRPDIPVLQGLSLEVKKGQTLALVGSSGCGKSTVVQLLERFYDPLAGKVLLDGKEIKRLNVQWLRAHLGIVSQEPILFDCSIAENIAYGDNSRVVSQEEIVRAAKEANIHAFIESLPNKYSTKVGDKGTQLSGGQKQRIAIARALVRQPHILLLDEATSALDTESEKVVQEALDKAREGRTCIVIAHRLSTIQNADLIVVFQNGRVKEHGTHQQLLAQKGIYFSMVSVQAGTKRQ

[2] = Phase 2a open-label combination study, pharmacokinetics and safety; assay type: in vivo, human; settings: for change of exposure on reducing ODV dosing from QD to QOD: 50 mg
Description: A randomized, Phase 2a, open-label study was carried out to evaluate the safety, pharmacokinetics and efficacy of the combination of Compound (III), Odalasvir and Simeprevir in Genotype 1 treatment-naïve subjects with chronic hepatitis C. Other treatment-naïve subjects included Genotype 2, 3, 4, 5 and 6. The aim of the study was to determine the efficacy, pharmacokinetics (PK), and safety of Compound (III)+Odalasvir±SMV in HCV-infected subjects. […] Efficacy, PK and safety evaluations were conducted during and through 24 weeks post dosing. Up to 15 cohorts were enrolled; data was generated from cohorts that have completed dosing.

[3] = PK analysis of fixed dose combinations vs single agents, single dose in healthy volunteers; assay type: in vivo, human; settings: Arm 2 (FDC02) vs reference (Arm 1); 90% CI in the row below
Description: SMV (100 mg), ODV (50 mg), and Compound (III) (800 mg) were administered as three different formulations or together as single doses in vivo to healthy volunteers. The arms of the study included: • Arm 1 (Reference Arm): Single oral doses of single agents, one SMV 100-mg capsule, one ODV 50-mg tablet as granule layered solid dispersion with copovidone and poloxamers, and two Compound (III) 400-mg tablets, administered together. • Arm 2: Single oral dose of fixed dose combination (FDC02): SMV 100 mg+ODV 50 mg as a spray dried solid dispersion with HPMC-AS L in a ratio ODV/HPMC-AS L 1/1 w/w+Compound (III) 800 mg • Arm 3: Single oral dose of fixed dose combination (FDC04): SMV 100 mg+ODV 50 mg as a spray dried solid dispersion with HPMC-AS L in a ratio ODV/HPMC-AS L 1/3 w/w+Compound (III) 800 mg • Arm 4: Single oral dose of fixed dose combination (FDC01): SMV 100 mg+ODV 50 mg as a spray dried solid dispersion with copovidone and poloxamers+Compound (III) 800 mg
PK parameters, including Cmax, tmax, AUClast, and AUC∞ were measured for Compound (III), ODV, SMV, and metabolites Compound A-I and Compound A-3 for each Arm of the study. Arms that included fixed dose combinations (FDC) (Arm 2, Arm 3, and Arm 4) were then compared to a single oral dose (Arm 1, the reference Arm). […]

MRP2 = MRP2 (Homo sapiens, UniProt Q92887); settings: MRP2/3; cited from earlier work
MRP2, sequence (Q92887 whole entry): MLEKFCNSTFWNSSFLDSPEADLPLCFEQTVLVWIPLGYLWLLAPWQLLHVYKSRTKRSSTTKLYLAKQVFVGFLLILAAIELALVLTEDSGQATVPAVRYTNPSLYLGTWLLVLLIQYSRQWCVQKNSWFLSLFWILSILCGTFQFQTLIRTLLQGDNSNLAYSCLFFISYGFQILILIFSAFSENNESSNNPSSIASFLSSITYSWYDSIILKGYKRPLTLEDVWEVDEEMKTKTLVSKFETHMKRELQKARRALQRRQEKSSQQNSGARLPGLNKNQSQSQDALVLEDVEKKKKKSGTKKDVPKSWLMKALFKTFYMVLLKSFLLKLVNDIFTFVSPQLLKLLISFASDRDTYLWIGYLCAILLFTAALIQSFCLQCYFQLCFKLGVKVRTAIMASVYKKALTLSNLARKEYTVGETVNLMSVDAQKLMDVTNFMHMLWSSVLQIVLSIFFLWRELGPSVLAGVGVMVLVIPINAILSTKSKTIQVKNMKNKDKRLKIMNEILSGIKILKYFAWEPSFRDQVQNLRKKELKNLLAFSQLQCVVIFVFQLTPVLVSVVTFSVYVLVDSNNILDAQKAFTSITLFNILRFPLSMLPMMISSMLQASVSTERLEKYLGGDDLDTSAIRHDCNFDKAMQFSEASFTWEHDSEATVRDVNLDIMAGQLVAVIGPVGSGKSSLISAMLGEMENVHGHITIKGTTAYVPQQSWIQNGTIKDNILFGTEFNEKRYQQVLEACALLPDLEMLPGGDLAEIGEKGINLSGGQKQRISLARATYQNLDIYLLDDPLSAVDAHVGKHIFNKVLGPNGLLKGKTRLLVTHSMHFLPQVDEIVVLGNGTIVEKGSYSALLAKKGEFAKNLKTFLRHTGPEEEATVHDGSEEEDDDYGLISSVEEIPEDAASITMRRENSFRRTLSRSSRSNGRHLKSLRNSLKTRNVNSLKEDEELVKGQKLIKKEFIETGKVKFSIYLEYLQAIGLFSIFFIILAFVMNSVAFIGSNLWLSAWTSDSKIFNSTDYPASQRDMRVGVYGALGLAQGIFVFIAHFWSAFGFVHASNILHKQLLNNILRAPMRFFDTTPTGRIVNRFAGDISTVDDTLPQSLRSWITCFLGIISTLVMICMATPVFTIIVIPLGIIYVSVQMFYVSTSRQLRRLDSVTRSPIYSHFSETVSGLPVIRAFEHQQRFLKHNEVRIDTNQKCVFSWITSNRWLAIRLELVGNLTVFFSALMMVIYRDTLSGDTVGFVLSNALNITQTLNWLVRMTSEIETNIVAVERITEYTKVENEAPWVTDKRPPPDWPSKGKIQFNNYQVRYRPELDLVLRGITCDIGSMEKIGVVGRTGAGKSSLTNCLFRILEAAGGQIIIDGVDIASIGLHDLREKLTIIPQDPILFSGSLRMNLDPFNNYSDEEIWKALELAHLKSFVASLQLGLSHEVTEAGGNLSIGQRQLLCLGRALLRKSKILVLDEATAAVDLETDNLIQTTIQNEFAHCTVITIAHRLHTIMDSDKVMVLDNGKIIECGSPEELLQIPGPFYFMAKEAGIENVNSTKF

BSEP = BSEP (Homo sapiens, UniProt O95342); settings: cited from earlier work
BSEP, sequence (O95342 whole entry): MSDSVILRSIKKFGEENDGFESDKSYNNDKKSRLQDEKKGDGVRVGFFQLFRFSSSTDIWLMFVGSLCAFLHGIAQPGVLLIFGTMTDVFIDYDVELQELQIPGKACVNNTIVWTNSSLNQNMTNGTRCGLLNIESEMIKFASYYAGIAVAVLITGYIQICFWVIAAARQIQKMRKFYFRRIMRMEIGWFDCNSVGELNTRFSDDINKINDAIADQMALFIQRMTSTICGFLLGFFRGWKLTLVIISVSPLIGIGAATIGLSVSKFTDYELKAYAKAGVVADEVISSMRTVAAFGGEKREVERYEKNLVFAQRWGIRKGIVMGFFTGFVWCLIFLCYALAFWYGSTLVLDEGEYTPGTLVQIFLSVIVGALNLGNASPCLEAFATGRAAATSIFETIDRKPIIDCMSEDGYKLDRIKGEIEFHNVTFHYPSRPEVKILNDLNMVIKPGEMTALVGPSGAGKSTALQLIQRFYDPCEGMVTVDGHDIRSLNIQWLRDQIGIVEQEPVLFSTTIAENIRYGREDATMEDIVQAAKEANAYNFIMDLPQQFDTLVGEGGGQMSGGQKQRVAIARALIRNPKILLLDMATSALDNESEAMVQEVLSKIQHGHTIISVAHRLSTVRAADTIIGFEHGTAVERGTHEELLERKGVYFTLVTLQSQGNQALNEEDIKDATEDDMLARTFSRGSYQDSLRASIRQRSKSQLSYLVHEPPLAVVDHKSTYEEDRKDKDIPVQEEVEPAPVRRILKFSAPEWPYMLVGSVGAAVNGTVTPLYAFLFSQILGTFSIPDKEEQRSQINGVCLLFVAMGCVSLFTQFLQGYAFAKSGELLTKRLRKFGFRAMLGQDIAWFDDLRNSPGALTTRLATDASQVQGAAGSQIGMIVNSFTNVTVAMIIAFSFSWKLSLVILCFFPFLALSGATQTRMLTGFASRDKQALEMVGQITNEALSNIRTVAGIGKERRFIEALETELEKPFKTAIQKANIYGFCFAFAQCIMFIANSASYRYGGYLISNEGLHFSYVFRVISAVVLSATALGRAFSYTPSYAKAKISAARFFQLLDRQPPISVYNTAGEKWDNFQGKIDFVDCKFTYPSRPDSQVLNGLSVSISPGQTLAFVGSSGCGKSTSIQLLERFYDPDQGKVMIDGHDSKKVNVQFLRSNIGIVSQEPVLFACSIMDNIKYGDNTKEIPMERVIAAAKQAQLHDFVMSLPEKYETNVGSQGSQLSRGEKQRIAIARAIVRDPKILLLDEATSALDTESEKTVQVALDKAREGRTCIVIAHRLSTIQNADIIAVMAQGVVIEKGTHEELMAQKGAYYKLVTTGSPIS

MRP3 = MRP3 (Homo sapiens, UniProt O15438); settings: MRP2/3; cited from earlier work

SMILES: CC(C)OC(=O)[C@H](C)N[P@](=O)(OC[C@@]1(F)O[C@@H](n2ccc(=O)[nH]c2=O)[C@](C)(O)[C@@H]1O)Oc1ccccc1 [Compound (III), isopropyl ((S)-(((2S,3S,4R,5R)-5-(2,4-dioxo-3,4-dihydropyrimidin-1 (2H)-yl)-2-fluoro-3,4-dihydroxy-4-methyltetrahydrofuran-2-yl)methoxy)(phenoxy)phosphoryl)-L-alaninate]
- increase of exposure caused by Odalasvir ([1]; DDI study, co-administration of Odalasvir): 4 ×
- increase of exposure caused by SMV ([1]; DDI study): 3 ×
- Cmax ([1]; Group 1, Day 13, Compound (III) 800 mg QD + SMV 150 mg QD): 376.2 ng/mL
- Cmax ([1]; Group 1, Day 23, Compound (III) 800 mg + SMV 150 mg + ODV 50 mg QD): 746.6 ng/mL
- Cmax ([1]; Group 2, Day 3, Compound (III) 800 mg QD alone): 150.7 ng/mL
- Cmax ([1]; Group 2, Day 13, (Compound (III) + SMV) as printed in Table 1): 515.9 ng/mL
- Cmax ([1]; Group 2, Day 23, Compound (III) 800 mg + SMV 150 mg + ODV 50 mg QD): 949.6 ng/mL
- increase of exposure in the combination ([1]; both, human, in vivo): 7-8 times
- Cmax ([1]; healthy volunteers, Group 1, Day 3, Compound (III) 800 mg QD alone): 161.6 ng/mL
- bioavailability with SMV and ODV co-administered compared to Compound (III) alone ([1]; human subjects): approximately 8 fold
- in vitro inhibition of Pgp (Pgp): no in vitro inhibition

SMILES: COC(=O)N[C@H](C(=O)N1[C@H](c2nc3cc(-c4cc5ccc4CCc4ccc(c(-c6ccc7[nH]c([C@@H]8C[C@@H]9CCCC[C@@H]9N8C(=O)[C@@H](NC(=O)OC)C(C)C)nc7c6)c4)CC5)ccc3[nH]2)C[C@@H]2CCCC[C@@H]21)C(C)C [ODV, methyl [(2S)-1-[(2S,3aS,7aS)-2-[6-[11-[2-[(2S,3aS,7aS)-1-[(2S)-2-[(methoxycarbonyl)amino]-3-methylbutanoyl]octahydro-1H-indol-2-yl]-1H-benzimidazol-6-yl]tricyclo[8.2.2.2^4,7]hexadeca-1(12),4,6,10,13,15-hexaen-5-yl]-1H-benzimidazol-2-yl]octahydro-1H-indol-1-yl]-3-methyl-1-oxobutan-2-yl]carbamate]
- increase of exposure, effect of the three Compounds ([1]; DDI study, Compound (III) + SMV + Odalasvir together): 1.5 ×
- effect of Compound (III) on exposure/bioavailability ([1]; DDI study, co-administration of Compound (III)): no apparent effect; also recorded: does not alter the bioavailability
- increase of exposure caused by SMV ([1]; DDI study): 1.6 ×
- increase of exposure in the combination ([1]; human in vivo study (Example 1), three drugs combined): 1.5 times
- increase of exposure by SMV ([1]; human subjects): 1.6 fold
- change of exposure on reducing ODV dosing from QD to QOD [2]: decreased ODV exposure proportionally
- change of exposure on reducing ODV dosing from QD to QOD ([2]; listed as Odalasvir): decreased Odalasvir exposure proportionally
- observed exposure in Cohort 1 / group (i) ([2]; Compound (III) 400 mg, ODV 50 mg QD, SMV 100 mg QD): higher than anticipated
- Least Square Means Ratio, Cmax [3]: 81.00%
- inhibition of MRP2 (MRP2): no inhibition
- inhibition of BSEP (BSEP): no inhibition
- inhibition of MRP3 (MRP3): no inhibition
